Source: paper PMC11945486, “TAS1R2/TAS1R3 Single-Nucleotide Polymorphisms Affect Sweet Taste Receptor Activation by Sweeteners: The SWEET Project” (Nutrients, 2025)
No end group written: not given here.

Biological target: T1, human TAS1R2-R838K/TAS1R3-WT (Homo sapiens, UniProt Q7RTX0+Q8TE23, R838K)
T1 construct: expressed in transfected cells; host or cells: HEK293T-Gα16gust44
T1 sequence (Q8TE23 20-839 R838K): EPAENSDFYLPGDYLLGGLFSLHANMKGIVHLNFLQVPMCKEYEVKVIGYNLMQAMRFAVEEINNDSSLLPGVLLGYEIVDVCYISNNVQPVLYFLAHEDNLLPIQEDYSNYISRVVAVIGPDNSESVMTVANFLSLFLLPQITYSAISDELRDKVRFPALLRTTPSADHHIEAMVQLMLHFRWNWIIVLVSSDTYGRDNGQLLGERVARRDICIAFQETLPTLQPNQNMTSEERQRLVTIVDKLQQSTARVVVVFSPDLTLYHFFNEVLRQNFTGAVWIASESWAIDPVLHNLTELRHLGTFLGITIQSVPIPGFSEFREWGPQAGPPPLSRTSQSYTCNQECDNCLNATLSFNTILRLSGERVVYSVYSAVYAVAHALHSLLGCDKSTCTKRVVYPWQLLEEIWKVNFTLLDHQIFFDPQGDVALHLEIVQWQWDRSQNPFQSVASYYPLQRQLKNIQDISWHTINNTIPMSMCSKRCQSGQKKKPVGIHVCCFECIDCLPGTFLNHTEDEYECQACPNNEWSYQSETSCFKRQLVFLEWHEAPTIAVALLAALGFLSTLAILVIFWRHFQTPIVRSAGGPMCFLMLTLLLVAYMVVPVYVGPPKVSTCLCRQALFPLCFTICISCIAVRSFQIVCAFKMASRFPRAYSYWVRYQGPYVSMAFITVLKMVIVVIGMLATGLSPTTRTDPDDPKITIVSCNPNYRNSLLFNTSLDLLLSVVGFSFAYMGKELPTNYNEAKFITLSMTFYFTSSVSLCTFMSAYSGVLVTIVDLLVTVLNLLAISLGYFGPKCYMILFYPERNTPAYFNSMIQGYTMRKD
T1 sequence (Q7RTX0 21-852): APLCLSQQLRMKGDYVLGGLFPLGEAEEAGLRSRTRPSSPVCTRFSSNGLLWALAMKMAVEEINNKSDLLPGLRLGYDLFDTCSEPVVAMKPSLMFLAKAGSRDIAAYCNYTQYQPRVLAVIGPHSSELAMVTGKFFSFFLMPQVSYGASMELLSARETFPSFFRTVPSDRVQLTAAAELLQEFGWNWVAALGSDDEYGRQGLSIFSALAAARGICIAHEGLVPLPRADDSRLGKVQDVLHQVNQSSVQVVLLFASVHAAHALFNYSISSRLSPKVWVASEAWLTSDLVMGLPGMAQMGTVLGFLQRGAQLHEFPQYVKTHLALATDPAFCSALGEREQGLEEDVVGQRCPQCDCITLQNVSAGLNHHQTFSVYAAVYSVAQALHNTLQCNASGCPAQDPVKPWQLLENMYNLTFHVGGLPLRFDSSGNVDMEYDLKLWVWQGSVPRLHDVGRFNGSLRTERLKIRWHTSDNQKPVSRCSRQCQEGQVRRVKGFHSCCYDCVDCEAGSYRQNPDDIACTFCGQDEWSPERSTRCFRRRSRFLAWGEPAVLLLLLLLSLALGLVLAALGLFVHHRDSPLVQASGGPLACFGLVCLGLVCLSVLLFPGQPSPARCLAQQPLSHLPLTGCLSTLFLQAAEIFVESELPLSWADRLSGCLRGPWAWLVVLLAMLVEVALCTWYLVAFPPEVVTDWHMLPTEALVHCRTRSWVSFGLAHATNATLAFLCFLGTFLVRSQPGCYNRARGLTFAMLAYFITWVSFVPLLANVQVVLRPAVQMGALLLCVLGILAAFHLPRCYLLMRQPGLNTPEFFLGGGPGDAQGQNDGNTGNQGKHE
Assay: Calcium mobilisation assay, TAS1R2 variant R838K with TAS1R3-WT
Format: cell-based
Conditions: for Max ΔF/F0: maximal signal amplitude
Excerpt: The coding sequences for TAS1R2 and TAS1R3 were commercially synthesised, and the human codon was optimised for expression in human cells. The coding sequences of human TAS1R2 and TAS1R3 were subcloned and inserted into the mammalian expression vectors pcDNA6/myc-HisA and pcDNA4/myc-HisA (Invitrogen; Thermo Fisher Scientific; Illkirch, France) between the EcoRI and NotI restriction sites, generating the plasmids pcDNA6-TAS1R2 and pcDNA4-TAS1R3, respectively. To increase protein expression in mammalian cells, an upstream start codon was used, which was a sequence called MAX, corresponding to the QBI SP163 element also described in pcDNA4-HisMax (Invitrogen; Thermo Fisher Scientific; Illkirch, France). To measure the expression level of the receptor by immunohistochemistry, we used the FLAG sequence ([…]) in the C-terminal position, which encodes the FLAG tag epitope. SNP variants of TAS1R2 and TAS1R3 were constructed based on […], respectively, using site-directed mutagenesis (Genewiz; Leipzig, Germany).
The HEK293T cells were kindly provided by Jay P. Slack (Givaudan Flavors Corporation; Cincinnati, OH, USA). HEK293T cells stably transfected with Gα16gust44 [43, 67] were seeded in poly-D-lysine-coated clear-bottom black 96-well plates (0.35 × 10^5 cells/well) in high-glucose DMEM supplemented with 2 mM GlutaMAX, 10% dialysed foetal bovine serum with penicillin/streptomycin and G418 (400 μg/mL) at 37 °C and 6.3% CO2 in a humidified atmosphere as previously reported. […] As a negative control, HEK293T cells were mock-transfected with the empty expression vector. After a further 24 h of incubation, the HEK293T cells were washed with C1 buffer (130 mM NaCl, 5 mM KCl, 10 mM HEPES pH 7.4 and 2 mM CaCl2). The 96-well plates containing the cells were then stimulated with sweet-tasting compounds. […] Different concentration ranges were tested depending on the sweet compound injected. The Ca^2+ changes were expressed as fractional changes in fluorescent light intensity: ΔF/F = (F − F0)/F0, where F was the fluorescent light intensity at each point, and F0 was the value of emitted fluorescent light prior to stimulus application. To calculate dose–response relationships, the changes in fluorescence upon stimulus application were averaged, mock-subtracted and baseline-corrected. The dose–response data obtained were adjusted using a 4-parameter logistic equation. The half-maximal effective concentrations (EC50 values) and maximal signal amplitudes were calculated using SigmaPlot software (version 15.0) (Systat Software; San Jose, CA, USA).
For in vitro calcium mobilisation assay performed on hTAS1R2-SNPs, hTAS1R3-SNPs and mTAS1R3-I60T, 6 to 7 concentrations were tested for each sweet compound, plus buffer alone. All concentration–receptor combinations were measured in duplicate, and each experiment was repeated at least 4 times (8 wells/concentration). Results were expressed for each concentration as ΔF/F mean ± SEM and represented as dose–response curves.

`CC1=CC(=O)NS(=O)(=O)O1` [Acesulfame K, acesulfame K] was tested, and the EC50 was 484 ± 47 µM, the “R1 = Variant EC50/WT EC50” value was 0.7 and the “Max ΔF/F0” value was 0.42 ± 0.02.

`O=S(=O)(O)NC1CCCCC1` [Cyclamate, cyclamate] was tested, and the EC50 was 1730 ± 24 µM.

`C[C@H](CC[C@@H](O[C@@H]1O[C@H](CO[C@@H]2O[C@H](CO)[C@@H](O)[C@H](O)[C@H]2O)[C@@H](O)[C@H](O)[C@H]1O[C@@H]1O[C@H](CO)[C@@H](O)[C@H](O)[C@H]1O)C(C)(C)O)[C@H]1CC[C@@]2(C)[C@@H]3CC=C4[C@@H](CC[C@H](O[C@@H]5O[C@H](CO[C@@H]6O[C@H](CO)[C@@H](O)[C@H](O)[C@H]6O)[C@@H](O)[C@H](O)[C@H]5O)C4(C)C)[C@]3(C)[C@H](O)C[C@]12C` [Mogroside V, mogroside V] was tested, and the EC50 was 17.1 ± 0.9 µM, the “R1 = Variant EC50/WT EC50” value was 1.0 and the “Max ΔF/F0” value was 1.31 ± 0.02.

With `COc1ccc(CCC(=O)c2c(O)cc(O[C@@H]3O[C@H](CO)[C@@H](O)[C@H](O)[C@H]3O[C@@H]3O[C@@H](C)[C@H](O)[C@@H](O)[C@H]3O)cc2O)cc1O` [NHDC, neohesperidin dihydrochalcone] the EC50 was 75.8 ± 1.2 µM, the “R1 = Variant EC50/WT EC50” value was 1.0 and the “Max ΔF/F0” value was 0.79 ± 0.05.

`COC(=O)[C@H](Cc1ccccc1)NC(=O)[C@H](CC(=O)O)NCCC(C)(C)C` [Neotame] was tested, and the EC50 was 0.66 ± 0.05 µM, the “R1 = Variant EC50/WT EC50” value was 0.8 and the “Max ΔF/F0” value was 0.75 ± 0.02.

`C=C(C)[C@@H]1CC=C(/C=N/O)CC1` [Perillartine, perillartine] was tested, and the EC50 was 19.1 ± 1.2 µM, the “R1 = Variant EC50/WT EC50” value was 1.1 and the “Max ΔF/F0” value was 1.45 ± 0.03.

`C=C1C[C@@]23CC[C@H]4[C@@](C)(CCC[C@@]4(C)C(=O)O[C@@H]4O[C@H](CO)[C@@H](O)[C@H](O[C@@H]5O[C@H](CO)[C@@H](O)[C@H](O)[C@H]5O)[C@H]4O[C@@H]4O[C@H](CO)[C@@H](O)[C@H](O)[C@H]4O)[C@@H]2CC[C@]1(O[C@@H]1O[C@H](CO)[C@@H](O)[C@H](O[C@@H]2O[C@H](CO)[C@@H](O)[C@H](O)[C@H]2O)[C@H]1O[C@@H]1O[C@H](CO)[C@@H](O)[C@H](O)[C@H]1O)C3` [Rebaudioside M, rebaudioside M] was tested, and the EC50 was 18.2 ± 1.1 µM, the “R1 = Variant EC50/WT EC50” value was 1.1 and the “Max ΔF/F0” value was 1.20 ± 0.01.

In the case of `OC[C@H]1O[C@H](O[C@]2(CCl)O[C@H](CCl)[C@@H](O)[C@@H]2O)[C@H](O)[C@@H](O)[C@H]1Cl` [Sucralose], the EC50 is reported as 82 ± 6 µM, the “R1 = Variant EC50/WT EC50” value is reported as 0.9 and the “Max ΔF/F0” value is reported as 0.75 ± 0.02.

For “brazzein (QDKCKKVYENYPVSKCQLANQCNYDCKLDKHARSGECFYDEKRNLQCICDYCEY; ends and bridges not checked; cysteine pairing not given here; UniProt P56552 1-54, looked up) [sweet-tasting protein obtained by recombinant production using the yeast Pichia pastoris]”, the “R1 = Variant EC50/WT EC50” value was 1.2 and the “Max ΔF/F0” value was 1.2 ± 0.03.

thaumatin was tested, and the “R1 = Variant EC50/WT EC50” value was 1.4 and the “Max ΔF/F0” value was 1.3 ± 0.02.

B1: thaumatin (protein)
chain: ATFEIVNRCSYTVWAAASKGDAALDAGGRQLNSGESWTINVEPGTKGGKIWARTDCYFDDSGSGICKTGDCGGLLRCKRFGRPPTTLAEFSLNQYGKDYIDISNIKGFNVPMDFSPTTRGCRGVRCAADIVGQCPAKLKAPGGGCNDACTVFQTSEYCCTTGKCGPTEYSRFFKRLCPDAFSYVLDKPTTVTCPGSSNYRVTFCPTA
modifications: Eight disulfides
notes: sweet-tasting plant protein, E957
With B1 the EC50 was 10.4 ± 0.2 µM.
